Reference: publication PMC7288171, “Synergistic Effects of Thiosemicarbazides with Clinical Drugs against S. aureus” (Molecules, 2020)
≈ marks a conversion by molar mass, not a printed value. Where two headings read alike, the source gives them in different places.

Legend:
[1] = target: T1, S. aureus topoisomerase IV (Staphylococcus aureus, UniProt P0C1S7+P0C1U9); assay: Topoisomerase IV decatenation assay; assay type: biochemical; conditions: in words; 50 and 100 µM tested (Figures S1–S3)
T1 construct: purchased Inspiralis, Norwich, UK
T1 sequence (P0C1U9 whole entry): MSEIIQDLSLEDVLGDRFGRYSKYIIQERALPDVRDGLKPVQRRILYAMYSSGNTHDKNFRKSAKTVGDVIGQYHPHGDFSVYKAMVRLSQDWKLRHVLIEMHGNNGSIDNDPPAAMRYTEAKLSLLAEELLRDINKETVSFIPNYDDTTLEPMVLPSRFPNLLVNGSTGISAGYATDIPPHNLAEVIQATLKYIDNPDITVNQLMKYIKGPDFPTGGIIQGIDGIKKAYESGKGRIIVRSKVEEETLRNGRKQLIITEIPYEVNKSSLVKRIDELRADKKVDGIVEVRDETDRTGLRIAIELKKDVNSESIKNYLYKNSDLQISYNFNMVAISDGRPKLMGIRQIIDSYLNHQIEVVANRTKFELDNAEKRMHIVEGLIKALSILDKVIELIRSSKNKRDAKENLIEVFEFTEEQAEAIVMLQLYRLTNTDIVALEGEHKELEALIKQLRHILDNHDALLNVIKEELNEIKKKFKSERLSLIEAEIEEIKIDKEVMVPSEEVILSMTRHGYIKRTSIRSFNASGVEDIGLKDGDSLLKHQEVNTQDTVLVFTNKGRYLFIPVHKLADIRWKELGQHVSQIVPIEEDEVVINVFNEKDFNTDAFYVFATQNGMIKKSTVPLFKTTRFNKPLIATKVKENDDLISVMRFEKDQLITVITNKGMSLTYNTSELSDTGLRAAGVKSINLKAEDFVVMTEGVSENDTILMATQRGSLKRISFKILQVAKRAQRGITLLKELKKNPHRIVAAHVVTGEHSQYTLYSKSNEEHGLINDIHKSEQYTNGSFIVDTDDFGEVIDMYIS
T1 sequence (P0C1S7 whole entry): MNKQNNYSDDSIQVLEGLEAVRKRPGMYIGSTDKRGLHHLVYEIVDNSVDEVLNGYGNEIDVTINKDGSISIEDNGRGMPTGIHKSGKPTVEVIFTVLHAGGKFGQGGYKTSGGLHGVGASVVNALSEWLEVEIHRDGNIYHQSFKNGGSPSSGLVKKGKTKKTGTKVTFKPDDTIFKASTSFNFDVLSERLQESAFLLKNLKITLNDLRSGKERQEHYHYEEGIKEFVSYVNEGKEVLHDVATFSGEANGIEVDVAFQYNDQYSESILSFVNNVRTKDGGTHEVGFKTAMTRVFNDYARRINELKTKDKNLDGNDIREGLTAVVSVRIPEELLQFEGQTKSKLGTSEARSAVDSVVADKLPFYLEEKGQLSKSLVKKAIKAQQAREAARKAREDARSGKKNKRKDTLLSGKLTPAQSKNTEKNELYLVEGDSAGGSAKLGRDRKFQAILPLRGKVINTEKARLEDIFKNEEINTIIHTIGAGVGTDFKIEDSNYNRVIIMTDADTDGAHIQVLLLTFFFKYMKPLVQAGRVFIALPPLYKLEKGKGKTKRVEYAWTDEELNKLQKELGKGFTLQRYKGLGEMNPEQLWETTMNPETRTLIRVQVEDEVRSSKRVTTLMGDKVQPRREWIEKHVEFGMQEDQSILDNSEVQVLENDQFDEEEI
Description: Inhibition of decatenation activity of S. aureus topoisomerase IV: The assay was performed using S. aureus topoisomerase IV decatenation kits (Inspiralis, Norwich, UK). Interlinked kDNA substrate (0.5 µg) was incubated with 1 unit of topoisomerase IV (Inspiralis, Norwich, UK), in the dedicated decatenation assay buffer supplied by the manufacturer, in the presence of varying concentrations of the test compounds. Reactions were carried out at 37 °C for 1 h and then terminated by the addition of equal volume of 2 × STOP Buffer and chloroform/iso-amyl alcohol. Samples were vortexed, centrifuged, and run through a 15 cm 1% agarose gel in TAE buffer for 1.5 h at 80 V. Gels were stained with ethidium bromide and visualized under UV light.

[2] = tested on: S. aureus ATCC 25923; assay: Checkerboard broth dilution synergy assay; assay type: cell-based
Description: The microdilution checkerboard method was used to evaluate the synergistic effects between the thiosemicarbazides 1–9 and antibiotics, which were determined as the fractional inhibitory concentration indices (FICIs). For these experiments, amoxicillin, gentamicin, levofloxacin, linezolid, and vancomycin were selected to represent the five antimicrobial classes most commonly used in clinical practice. In this way, a total of 45 combinations of thiosemicarbazide-amoxicillin, thiosemicarbazide-gentamicin, thiosemicarbazide-levofloxacin, thiosemicarbazide-linezolid, and thiosemicarbazide-vancomycin against S. aureus ATCC 25923 were tested to identify in vitro synergy effects.
Interaction of the thiosemicarbazides 1–9 in combination with amoxicillin, gentamicin, levofloxacin, linezolid or vancomycin against S. aureus ATCC 25923 were analyzed using the checkerboard broth dilution method to determine the fractional inhibitory concentration indices (FICIs), calculated as: FIC = MIC of drug A in combination/MIC of drug A alone + MIC of drug B in combination/MIC of drug B alone. The calculated FICIs were interpreted as synergistic (FIC ≤ 0.5), additive (0.5 < FIC < 1), indifferent (1 ≤ FIC < 4.0), or antagonistic (FIC ≥ 4.0). The checkerboard assay included ciprofloxacin-carvedilol combination as positive control, whereas cefuroxime in combination with 4-(4-bromophenyl)-1-(3-fluorobezoyl)thiosemicarbazide served as negative control. The Z-factor value for the bioassay was 0.683.

[3] = tested on: S. aureus ATCC 25923; assay: MIC, broth microdilution; assay type: cell-based; conditions: S. a. ATCC 25923, compounds 6–9 and antibiotics
Description: (§1) The antibacterial activity of the thiosemicarbazides 1–9 and antibiotics (amoxicillin, gentamicin, levofloxacin, linezolid, and vancomycin) was tested on the Gram-positive strains (Microbiologics, St. Cloud, MN, USA) (S. aureus ATCC 25923, S. aureus ATCC 6538, S. epidermidis ATCC 12228, B. subtilis ATCC 6633, B. cereus ATCC 10876, M. luteus ATCC 10240), the Gram-negative strains (Microbiologics, St. Cloud, MN, USA) (E. coli ATCC 25922, K. pneumoniae ATCC 13883, P. mirabilis ATCC 12453, P. aeruginosa ATCC 9027), and clinical isolates of S. aureus (Medical University of Lublin, Lublin, Poland) (MSSA-1, MSSA-2, MSSA-3, MSSA-4, MRSA-1).

[4] = tested on: S. aureus ATCC 6538; assay: MIC, broth microdilution; assay type: cell-based; conditions: Staphylococcus aureus, ATCC6538; S. a. ATCC 6538; compounds 6–9 and antibiotics; read-out: MIC
Description: as §1

[5] = tested on: B. subtilis ATCC 6633; assay: MIC, broth microdilution; assay type: cell-based; conditions: Bacillus subtilis, ATCC6633; B. s. ATCC 6633; compounds 6–9 and antibiotics; read-out: MIC
Description: as §1

[6] = tested on: S. epidermidis ATCC 12228; assay: MIC, broth microdilution; assay type: cell-based; conditions: Staphylococcus epidermidis, ATCC12228; S. e. ATCC 12228; compounds 6–9 and antibiotics; read-out: MIC
Description: as §1

[7] = tested on: M. luteus ATCC 10240; assay: MIC, broth microdilution; assay type: cell-based; conditions: Micrococcus luteus, ATCC10240; M. l. ATCC 10240; compounds 6–9 and antibiotics; read-out: MIC
Description: as §1

[8] = tested on: B. cereus ATCC 10876; assay: MIC, broth microdilution; assay type: cell-based; conditions: Bacillus cereus, ATCC10876; B. c. ATCC 10876; compounds 6–9 and antibiotics; read-out: MIC
Description: as §1

[9] = tested on: MSSA-3; assay: MIC, clinical isolate of S. aureus; assay type: cell-based; conditions: Staphylococcus aureus; clinical isolate MSSA-3; read-out: MIC
Description: as §1

[10] = tested on: MSSA-2; assay: MIC, clinical isolate of S. aureus; assay type: cell-based; conditions: Staphylococcus aureus; clinical isolate MSSA-2; read-out: MIC
Description: as §1

[11] = tested on: MSSA-1; assay: MIC, clinical isolate of S. aureus; assay type: cell-based; conditions: Staphylococcus aureus; clinical isolate MSSA-1; read-out: MIC
Description: as §1

[12] = tested on: MSSA-4; assay: MIC, clinical isolate of S. aureus; assay type: cell-based; conditions: Staphylococcus aureus; clinical isolate MSSA-4; read-out: MIC
Description: as §1

[13] = tested on: MRSA-1; assay: MIC, clinical isolate of S. aureus; assay type: cell-based; conditions: Staphylococcus aureus; clinical isolate MRSA-1; read-out: MIC
Description: as §1

[14] = MTT cytotoxicity assay; assay type: cell-based, human; conditions: human, Hs27 foreskin fibroblast cells (ATCC CRL-1634), 25 µg/mL, 24 h, vehicle control = 100%
Description: (§2) A critical factor in research and development of new antibacterial agents is their abilities to selectively target bacterial cells without toxicity to mammalian cells. Thus, in order to test if antibacterial activity of title thiosemicarbazides is not due to their general toxicity, their effect on mammalian cell viability was assessed using human foreskin fibroblast Hs27 cells (CRL-1634) via MTT assay.
(§3) Cytotoxic properties of the compounds were evaluated using human foreskin fibroblast cells Hs27 (ATCC CRL-1634) (ATCC, Manassas, VA, USA) that were cultured in DMEM-high glucose (Sigma Aldrich, St. Louis, MO, USA). Medium was supplemented with 10% fetal bovine serum (FBS, Sigma Aldrich), 100 U/mL of penicillin, and […] of streptomycin (PenStrep, Sigma Aldrich, St. Louis, MO, USA). Cells were incubated at 37 °C in a humidified atmosphere of 5% CO2. Stock solutions of the tested compounds were prepared dissolving in a sterile dimethyl sulfoxide (DMSO) to the concentration of 50 mg/mL. The cells were seeded into 96-well sterile plates (Nunc) at a cell density of 1 × 10^5 cells/mL. After 24 h of incubation, the medium was removed from each well, and then cells were incubated for the next 24 h with tested compounds (in a fixed dose of 25 µg/mL) in DMEM-high glucose containing 2% FBS. Control cells were cultured only with medium containing 2% addition of FBS. Cytotoxicity of the compounds was evaluated using MTT assay, which is based on the conversion of 3-(4,5-dimethylthiazol-2-yl)-2,5- diphenyltetrazolium bromide (MTT) into dark-blue formazan crystals. Briefly, after 24-h incubation of cells with varying concentrations of the tested compounds, culture medium was removed from the plates. Cells were washed with PBS, and then 100 µL of medium containing 10% MTT solution (5 mg/mL) was added to each well. Cells were incubated for the next 3 h at 37 °C in an atmosphere of 5% CO2. Next, 100 µL (per well) of 10% sodium dodecyl sulfate (SDS) buffer solution was added to dissolve formazan crystals and after an overnight incubation the absorbance was measured at 570 nm using a microplate reader (Epoch, BioTek Instruments, Inc., Winooski, VT, USA).

[15] = tested on: human foreskin fibroblast Hs27 cells (CRL-1634); assay: MTT cytotoxicity assay; assay type: cell-based; conditions: Homo sapiens, 24 h of treatment
Description: as §2, §3

[16] = target: T2, S. aureus DNA gyrase (Staphylococcus aureus, UniProt P0A0K8+P20831); assay: Gyrase supercoiling assay; assay type: biochemical; conditions: read-out: S. aureus Gyrase DNA Inhibition (%) ± SD
T2 construct: purchased Inspiralis, Norwich, UK
T2 sequence (P20831 whole entry): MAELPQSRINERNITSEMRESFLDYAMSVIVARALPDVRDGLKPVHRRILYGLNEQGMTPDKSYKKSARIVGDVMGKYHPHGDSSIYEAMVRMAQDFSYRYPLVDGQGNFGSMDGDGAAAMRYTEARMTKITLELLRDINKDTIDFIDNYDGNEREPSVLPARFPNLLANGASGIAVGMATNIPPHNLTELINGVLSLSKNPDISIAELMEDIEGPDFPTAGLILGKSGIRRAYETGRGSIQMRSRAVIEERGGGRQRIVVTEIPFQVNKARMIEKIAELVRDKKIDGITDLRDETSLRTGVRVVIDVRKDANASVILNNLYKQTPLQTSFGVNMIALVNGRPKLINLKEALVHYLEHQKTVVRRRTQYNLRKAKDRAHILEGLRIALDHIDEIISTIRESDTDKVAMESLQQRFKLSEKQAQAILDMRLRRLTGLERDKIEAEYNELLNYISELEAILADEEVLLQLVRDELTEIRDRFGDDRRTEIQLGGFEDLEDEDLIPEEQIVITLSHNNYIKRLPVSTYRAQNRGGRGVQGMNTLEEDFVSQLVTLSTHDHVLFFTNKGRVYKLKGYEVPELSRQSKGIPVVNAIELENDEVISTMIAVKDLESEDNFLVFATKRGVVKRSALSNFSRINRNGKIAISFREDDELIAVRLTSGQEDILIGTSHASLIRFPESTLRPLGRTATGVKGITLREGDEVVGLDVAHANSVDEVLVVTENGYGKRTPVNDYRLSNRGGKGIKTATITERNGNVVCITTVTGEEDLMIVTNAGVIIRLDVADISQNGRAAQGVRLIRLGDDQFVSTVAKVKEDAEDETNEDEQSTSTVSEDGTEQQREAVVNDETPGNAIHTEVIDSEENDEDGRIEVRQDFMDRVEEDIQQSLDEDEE
T2 sequence (P0A0K8 whole entry): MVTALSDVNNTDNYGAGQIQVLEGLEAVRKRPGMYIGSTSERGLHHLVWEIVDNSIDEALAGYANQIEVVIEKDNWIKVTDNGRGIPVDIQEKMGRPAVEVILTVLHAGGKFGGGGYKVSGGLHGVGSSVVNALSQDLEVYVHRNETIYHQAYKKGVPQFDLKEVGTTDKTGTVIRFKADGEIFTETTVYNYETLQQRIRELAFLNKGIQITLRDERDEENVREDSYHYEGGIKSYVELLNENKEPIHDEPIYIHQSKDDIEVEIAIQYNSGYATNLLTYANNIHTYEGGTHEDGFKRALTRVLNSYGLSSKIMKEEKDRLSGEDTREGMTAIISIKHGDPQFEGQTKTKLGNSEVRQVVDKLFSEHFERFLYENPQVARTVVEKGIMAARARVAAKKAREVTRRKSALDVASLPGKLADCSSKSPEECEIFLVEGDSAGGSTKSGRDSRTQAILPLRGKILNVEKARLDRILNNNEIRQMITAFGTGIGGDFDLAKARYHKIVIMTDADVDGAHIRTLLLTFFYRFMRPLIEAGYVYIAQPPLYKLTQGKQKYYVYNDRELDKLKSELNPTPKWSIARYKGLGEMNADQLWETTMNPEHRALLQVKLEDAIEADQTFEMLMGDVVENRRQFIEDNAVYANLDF
Description: Supercoiling assay: The assays were performed using S. aureus Gyrase Supercoiling Assay Kits (Inspiralis, Norwich, UK). Briefly, […] pBR322 plasmid DNA (0.5 µg) was incubated with 1 unit of gyrase, in the dedicated supercoiling assay buffer supplied by the manufacturer, in the presence of varying concentrations of the test compounds. Reactions were carried out at 37 °C for 1 h and then terminated by the addition of equal volume of 2 × STOP Buffer (40% sucrose, 100 mM Tris-Cl pH 7.5, 1 mM EDTA, and 0.5 mg/mL bromophenol blue) and chloroform/iso-amyl alcohol. Samples were vortexed, centrifuged, and run through a 15 cm 1% agarose gel in TAE buffer (40 mM Tris-acetate, 2 mM EDTA) for 3 h at 50 V. Gels were stained with ethidium bromide and visualized under UV light.

[17] = Staphylococcus aureus, ATCC25923, read-out: MIC

Compound | inhibitory action against topoisomerase IV [1] | interaction in combination ([2]; combination with amoxicillin) | interaction in combination ([2]; combination with gentamicin) | interaction in combination ([2]; combination with levofloxacin) | interaction in combination ([2]; combination with linezolid) | interaction in combination ([2]; combination with vancomycin) | MIC [3, 17] [µg/mL] | MIC [4] [µg/mL] | MIC [5] [µg/mL] | MIC [6] [µg/mL] | MIC [7] [µg/mL] | MIC [8] [µg/mL] | MIC [9] [µg/mL] | MIC [10] [µg/mL] | MIC [11] [µg/mL] | MIC [12] [µg/mL] | MIC [13] [µg/mL] | viability at 24 h, 25 µg/mL [14] [%] | IC50 [15] [µg/mL] | melting point [°C] | also measured
O=C(NNC(=S)Nc1cccc(Br)c1)c1ccccc1F [compound 9, 4-(3-bromophenyl)-1-(2-fluorobenzoyl)thiosemicarbazide] | no inhibitory effects | indifferently | indifferently | additively | additively | indifferently | 62.5 (≈ 170 µM) | 62.5 (≈ 170 µM) | 15.6 (≈ 42.4 µM) | 31.2 (≈ 84.9 µM) | 7.82 (≈ 21.2 µM) | 15.6 (≈ 42.4 µM) | > 500 | > 500 | 62.5 (≈ 170 µM) | 125 (≈ 339 µM) | 125 (≈ 339 µM) | 63.1 | > 25 | 166 to 168 | MIC [3]: 62.50 µg/mL (≈ 170 µM)
O=C(NNC(=S)Nc1cccc(Cl)c1)c1ccccc1F [compound 7, 4-(3-chlorophenyl)-1-(2-fluorobenzoyl)thiosemicarbazide] |  | additively | no interactions | synergistically | no interactions | antagonistic | 62.5 (≈ 193 µM) | 31.2 (≈ 96.5 µM) | 15.6 (≈ 48.3 µM) | 31.2 (≈ 96.5 µM) | 7.82 (≈ 24.2 µM) | 31.2 (≈ 96.5 µM) | 125 (≈ 386 µM) | > 500 | 125 (≈ 386 µM) | 125 (≈ 386 µM) | 500 (≈ 1540 µM) | 93.2 | > 25 | 158 to 160 | inhibition at 50 µM ([16]; 50 µM): 23.8 ± 5.02%; inhibition at 100 µM ([16]; 100 µM): 33.1 ± 1.04%; MIC [3]: 62.50 µg/mL (≈ 193 µM)
O=C(NNC(=S)Nc1cccc(C(F)(F)F)c1)c1ccccc1F [compound 8, 1-(2-fluorobenzoyl)-4-(3-trifluoromethylphenyl)thiosemicarbazide] | no inhibitory effects | indifferently | indifferently | additively | additively | indifferently | 15.6 (≈ 43.7 µM) | 15.6 (≈ 43.7 µM) | 7.82 (≈ 21.9 µM) | 7.82 (≈ 21.9 µM) | 7.82 (≈ 21.9 µM) | 7.82 (≈ 21.9 µM) | > 500 | > 500 | 62.5 (≈ 175 µM) | > 500 | > 500 | 65.2 | > 25 | 176 to 178 | 
